How the values were obtained:
Assay in all cases: relative viability (nuclei count vs DMSO), 5 days (fraction); higher = more cells survive
[1] = compound: CC1CC(=O)N(C2=CN=C(N=C2N1C3CCCC3)NC4=C(C=C(C=C4)C(=O)NC5CCN(CC5)C)OC)C [NPK76-II-72-1] + Cc1nc(Nc2ncc(C(=O)Nc3c(C)cccc3Cl)s2)cc(N2CCN(CCO)CC2)n1 [Dasatinib] (partner 0.075 µM)
Summary of the method: (§1)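 Medians of duplicate plates are given as relative viability. That measure is the nuclei count in treated wells divided by the count in vehicle wells. Counts were taken on 4× images of lung cancer cell lines in 1536-well plates, 5 days after pin-tool dosing the day after seeding with one drug alone or a fixed anchor-drug dose plus five library-drug doses (not always all listed) in √10 steps.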

BI-2536 + Tozasertib = compound: CC[C@@H]1C(=O)N(C)c2cnc(Nc3ccc(C(=O)NC4CCN(C)CC4)cc3OC)nc2N1C1CCCC1 [BI-2536] + Cc1cc(Nc2cc(N3CCN(C)CC3)nc(Sc3ccc(NC(=O)C4CC4)cc3)n2)n[nH]1 [Tozasertib] (partner 0.1 µM)
Summary of the method: as §1

BI-2536 + Bortezomib = compound: CC[C@@H]1C(=O)N(C)c2cnc(Nc3ccc(C(=O)NC4CCN(C)CC4)cc3OC)nc2N1C1CCCC1 [BI-2536] + CC(C)C[C@H](NC(=O)[C@H](Cc1ccccc1)NC(=O)c1cnccn1)B(O)O [Bortezomib] (partner 0.002 µM)
Summary of the method: as §1

BI-2536 + Pemetrexed = compound: CC[C@@H]1C(=O)N(C)c2cnc(Nc3ccc(C(=O)NC4CCN(C)CC4)cc3OC)nc2N1C1CCCC1 [BI-2536] + Nc1nc2[nH]cc(CCc3ccc(C(=O)N[C@@H](CCC(=O)O)C(=O)O)cc3)c2c(=O)[nH]1 [Pemetrexed] (partner 0.2 µM)
Summary of the method: as §1

Row | Cell Line | relative viability ([1]; first compound 0.01 µM) | relative viability ([1]; first compound 0.03162 µM) | relative viability ([1]; first compound 0.1 µM) | relative viability ([1]; first compound 0.3162 µM) | relative viability ([1]; first compound 1 µM) | relative viability (BI-2536 + Tozasertib; first compound 0.03162 µM) | relative viability (BI-2536 + Tozasertib; first compound 0.1 µM) | relative viability (BI-2536 + Tozasertib; first compound 0.3162 µM) | relative viability (BI-2536 + Tozasertib; first compound 1 µM) | relative viability (BI-2536 + Bortezomib; first compound 0.01 µM) | relative viability (BI-2536 + Bortezomib; first compound 0.03162 µM) | relative viability (BI-2536 + Bortezomib; first compound 0.1 µM) | relative viability (BI-2536 + Bortezomib; first compound 0.3162 µM) | relative viability (BI-2536 + Bortezomib; first compound 1 µM) | relative viability (BI-2536 + Pemetrexed; first compound 0.01 µM) | relative viability (BI-2536 + Pemetrexed; first compound 0.03162 µM) | relative viability (BI-2536 + Pemetrexed; first compound 0.1 µM) | relative viability (BI-2536 + Pemetrexed; first compound 0.3162 µM) | relative viability (BI-2536 + Pemetrexed; first compound 1 µM) | relative viability (BI-2536 + Tozasertib; first compound 0.01 µM)
1 | NCI-H2347 | 0.309 | 0.297 | 0.348 | 0.348 | 0.327 | 0.503 | 0.465 | 0.295 | 0.352 | 0.864 | 0.963 | 0.859 | 0.482 | 0.476 | 0.437 | 0.437 | 0.38 | 0.365 | 0.344 | –
2 | NCI-H2405 | 0.236 | 0.209 | 0.194 | 0.213 | 0.212 | 0.566 | 0.381 | 0.296 | 0.33 | 0.829 | 1.04 | 0.588 | 0.632 | 0.723 | 1.07 | 0.992 | 0.375 | 0.342 | 0.457 | 0.73
3 | NCI-H3122 | 0.796 | 0.802 | 0.76 | 0.697 | 0.956 | 0.207 | 0.266 | 0.297 | 0.246 | 0.982 | 1.01 | 0.43 | 0.231 | 0.242 | 0.212 | 0.171 | 0.159 | 0.129 | 0.121 | 0.363
4 | PC-3 [JPC-3] | 0.937 | 1.02 | 0.916 | 0.973 | 1.07 | 0.693 | 0.707 | 0.289 | 0.313 | 0.799 | 0.93 | 0.834 | 0.5 | 0.233 | 1.23 | 1.04 | 0.319 | 0.299 | 0.24 | 0.889
5 | PC-14 | 0.271 | 0.238 | 0.272 | 0.227 | 0.293 | 0.568 | 0.548 | 0.045 | 0.0586 | 0.851 | 0.835 | 0.665 | 0.0691 | 0.0558 | 0.15 | 0.14 | 0.132 | 0.0335 | 0.0205 | 0.577
6 | RERF-LC-KJ | 0.818 | 0.886 | 0.722 | 0.732 | 0.808 | 0.405 | 0.275 | 0.224 | 0.226 | 1.12 | 1.28 | 0.939 | 0.221 | 0.264 | 0.46 | 0.46 | 0.31 | 0.186 | 0.213 | 0.496
7 | SK-LU-1 | 0.188 | 0.181 | 0.207 | 0.202 | 0.172 | 0.317 | 0.323 | 0.218 | 0.176 | 0.978 | 1.12 | 0.465 | 0.201 | 0.174 | 0.94 | 0.938 | 0.392 | 0.265 | 0.243 | 0.323
8 | SW 1573 | 0.46 | 0.592 | 0.556 | 0.589 | 0.509 | 0.166 | 0.159 | 0.127 | 0.121 | 1.12 | 1.15 | 0.967 | 0.14 | 0.152 | 0.753 | 0.516 | 0.149 | 0.124 | 0.0813 | 0.192

— the supplement of paper PMC10307832
